How the values were obtained:
Experiment in all cases: Competitive isoTOP-ABPP in situ (fragment-treated cells)
Format in all cases: cell-based
[1] = biological target: cysteines in MDA-MB-231 and Ramos cells (Homo sapiens, UniProt P04818)
[2] = biological target: T1, cysteines in MDA-MB-231 and Ramos cells (Homo sapiens, UniProt Q15398); conditions: 200 μM, insitu, 231
T1 sequence (Q15398 1-846): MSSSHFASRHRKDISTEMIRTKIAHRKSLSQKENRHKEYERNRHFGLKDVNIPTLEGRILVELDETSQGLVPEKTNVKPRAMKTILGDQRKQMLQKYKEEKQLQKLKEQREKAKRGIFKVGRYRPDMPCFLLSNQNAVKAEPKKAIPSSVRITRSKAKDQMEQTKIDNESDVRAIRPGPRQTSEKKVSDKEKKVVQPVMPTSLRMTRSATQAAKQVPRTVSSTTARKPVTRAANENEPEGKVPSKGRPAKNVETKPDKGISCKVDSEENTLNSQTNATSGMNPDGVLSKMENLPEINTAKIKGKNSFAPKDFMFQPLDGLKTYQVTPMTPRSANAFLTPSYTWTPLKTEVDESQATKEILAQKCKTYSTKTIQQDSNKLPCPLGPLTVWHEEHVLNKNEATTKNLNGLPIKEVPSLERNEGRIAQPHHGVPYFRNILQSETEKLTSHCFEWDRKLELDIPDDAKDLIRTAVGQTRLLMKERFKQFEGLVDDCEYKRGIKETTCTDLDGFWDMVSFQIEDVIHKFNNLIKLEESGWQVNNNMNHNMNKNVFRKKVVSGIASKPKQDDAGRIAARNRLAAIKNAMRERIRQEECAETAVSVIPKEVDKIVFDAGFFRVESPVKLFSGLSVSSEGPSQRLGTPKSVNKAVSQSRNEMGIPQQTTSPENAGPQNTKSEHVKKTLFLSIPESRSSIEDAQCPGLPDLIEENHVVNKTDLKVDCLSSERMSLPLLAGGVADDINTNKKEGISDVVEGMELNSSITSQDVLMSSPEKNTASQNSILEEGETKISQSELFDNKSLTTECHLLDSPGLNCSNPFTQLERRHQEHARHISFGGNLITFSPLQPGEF

[3] = biological target: T2, cysteines in MDA-MB-231 and Ramos cells (Homo sapiens, UniProt Q8N1F7); conditions: 200 μM, insitu, 231
T2 sequence (Q8N1F7 1-819): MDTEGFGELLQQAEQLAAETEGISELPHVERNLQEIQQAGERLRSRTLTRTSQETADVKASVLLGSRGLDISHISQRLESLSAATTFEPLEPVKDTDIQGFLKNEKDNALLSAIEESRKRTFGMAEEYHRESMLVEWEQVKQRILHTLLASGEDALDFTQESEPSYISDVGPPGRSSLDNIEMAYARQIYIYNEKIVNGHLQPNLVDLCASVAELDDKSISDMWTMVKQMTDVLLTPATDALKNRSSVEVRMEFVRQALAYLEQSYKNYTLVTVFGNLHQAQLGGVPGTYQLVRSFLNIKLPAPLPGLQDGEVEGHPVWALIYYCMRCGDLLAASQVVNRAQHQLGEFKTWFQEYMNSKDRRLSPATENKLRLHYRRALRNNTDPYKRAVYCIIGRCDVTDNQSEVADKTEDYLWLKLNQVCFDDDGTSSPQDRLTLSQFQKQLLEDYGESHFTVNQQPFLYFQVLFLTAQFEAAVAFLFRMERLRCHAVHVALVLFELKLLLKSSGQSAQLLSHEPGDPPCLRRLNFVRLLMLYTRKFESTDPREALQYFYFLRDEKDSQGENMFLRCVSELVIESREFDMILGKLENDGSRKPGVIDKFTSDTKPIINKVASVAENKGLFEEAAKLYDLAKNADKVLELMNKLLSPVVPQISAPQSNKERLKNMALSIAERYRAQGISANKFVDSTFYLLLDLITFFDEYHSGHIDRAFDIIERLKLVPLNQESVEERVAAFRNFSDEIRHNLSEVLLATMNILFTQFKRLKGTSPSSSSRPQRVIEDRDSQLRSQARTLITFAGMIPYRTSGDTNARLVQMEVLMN

[4] = biological target: T3, cysteines in MDA-MB-231 and Ramos cells (Homo sapiens, UniProt P53384)
T3 sequence (P53384 1-320): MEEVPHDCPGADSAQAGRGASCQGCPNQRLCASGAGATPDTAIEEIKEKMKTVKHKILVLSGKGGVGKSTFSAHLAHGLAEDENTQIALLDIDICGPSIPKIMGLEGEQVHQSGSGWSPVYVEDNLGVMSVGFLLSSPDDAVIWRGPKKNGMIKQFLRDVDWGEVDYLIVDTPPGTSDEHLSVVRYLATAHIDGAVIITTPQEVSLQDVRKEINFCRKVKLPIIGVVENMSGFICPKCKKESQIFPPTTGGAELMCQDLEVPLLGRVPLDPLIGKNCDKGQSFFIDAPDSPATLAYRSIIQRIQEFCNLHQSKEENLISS

[5] = biological target: T4, cysteines in MDA-MB-231 and Ramos cells (Homo sapiens, UniProt P09110); conditions: 200 μM, insitu, 231
T4 sequence (P09110 27-424): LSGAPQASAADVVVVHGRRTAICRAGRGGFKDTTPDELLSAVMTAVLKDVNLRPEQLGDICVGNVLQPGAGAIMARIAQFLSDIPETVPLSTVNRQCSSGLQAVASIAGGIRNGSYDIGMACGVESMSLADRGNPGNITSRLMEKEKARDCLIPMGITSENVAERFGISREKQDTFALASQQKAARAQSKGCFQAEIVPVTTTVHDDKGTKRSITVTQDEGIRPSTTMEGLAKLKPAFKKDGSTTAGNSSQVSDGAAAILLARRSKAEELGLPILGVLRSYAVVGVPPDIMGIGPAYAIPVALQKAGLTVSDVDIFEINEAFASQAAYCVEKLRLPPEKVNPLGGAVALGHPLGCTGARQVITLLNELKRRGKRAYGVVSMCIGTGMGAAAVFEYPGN

[6] = biological target: cysteines in MDA-MB-231 and Ramos cells (Homo sapiens, UniProt O14980); conditions: for isoTOP-ABPP ratio O14980_C528: 200 μM, insitu
[7] = biological target: cysteines in MDA-MB-231 and Ramos cells (Homo sapiens, UniProt Q9BRF8); conditions: for isoTOP-ABPP ratio Q9BRF8_C54: 200 μM, insitu, 231
[8] = biological target: cysteines in MDA-MB-231 and Ramos cells (Homo sapiens, UniProt O14933); conditions: for isoTOP-ABPP ratio, cysteine O14933_C98 / isoTOP-ABPP ratio O14933_C98: 200 μM, insitu
[9] = biological target: cysteines in MDA-MB-231 and Ramos cells (Homo sapiens, UniProt O60825); conditions: 200 μM, insitu
[10] = biological target: cysteines in MDA-MB-231 and Ramos cells (Homo sapiens, UniProt O15446); conditions: 200 μM, insitu, 231
Sequence of cysteines in MDA-MB-231 and Ramos cells (Homo sapiens, UniProt O15446) (O15446 whole entry): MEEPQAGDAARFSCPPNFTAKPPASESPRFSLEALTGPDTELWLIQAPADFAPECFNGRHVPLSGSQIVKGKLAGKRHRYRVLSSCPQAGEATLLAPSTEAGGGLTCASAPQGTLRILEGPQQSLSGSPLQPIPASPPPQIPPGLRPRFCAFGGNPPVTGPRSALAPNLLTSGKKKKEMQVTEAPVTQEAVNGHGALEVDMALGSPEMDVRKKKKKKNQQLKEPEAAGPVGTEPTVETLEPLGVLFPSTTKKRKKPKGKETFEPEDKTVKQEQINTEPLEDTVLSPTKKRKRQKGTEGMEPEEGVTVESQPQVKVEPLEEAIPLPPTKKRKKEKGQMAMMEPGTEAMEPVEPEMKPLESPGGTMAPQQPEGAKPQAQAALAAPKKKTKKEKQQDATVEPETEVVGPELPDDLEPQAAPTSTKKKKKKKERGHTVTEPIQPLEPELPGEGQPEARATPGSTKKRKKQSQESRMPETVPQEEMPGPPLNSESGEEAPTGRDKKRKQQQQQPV

Sequence of cysteines in MDA-MB-231 and Ramos cells (Homo sapiens, UniProt P04818) (P04818 whole entry): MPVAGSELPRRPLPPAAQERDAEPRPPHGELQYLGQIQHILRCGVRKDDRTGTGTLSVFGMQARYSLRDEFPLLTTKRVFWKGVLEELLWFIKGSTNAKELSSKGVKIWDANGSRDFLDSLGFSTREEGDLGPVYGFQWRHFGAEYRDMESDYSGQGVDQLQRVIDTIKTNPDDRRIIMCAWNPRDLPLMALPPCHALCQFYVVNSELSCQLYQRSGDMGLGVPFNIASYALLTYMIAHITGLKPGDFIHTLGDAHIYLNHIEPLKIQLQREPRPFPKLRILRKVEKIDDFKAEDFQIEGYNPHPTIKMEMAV
Sequence of cysteines in MDA-MB-231 and Ramos cells (Homo sapiens, UniProt Q9BRF8) (Q9BRF8 whole entry): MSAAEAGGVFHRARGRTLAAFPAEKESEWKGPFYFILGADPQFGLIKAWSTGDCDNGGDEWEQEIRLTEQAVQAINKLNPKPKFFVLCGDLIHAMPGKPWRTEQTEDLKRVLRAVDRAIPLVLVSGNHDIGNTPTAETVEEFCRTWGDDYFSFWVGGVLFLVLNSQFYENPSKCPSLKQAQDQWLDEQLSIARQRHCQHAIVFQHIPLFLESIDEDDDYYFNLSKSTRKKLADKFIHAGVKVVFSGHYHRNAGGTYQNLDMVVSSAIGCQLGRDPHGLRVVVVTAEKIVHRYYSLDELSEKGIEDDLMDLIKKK
Sequence of cysteines in MDA-MB-231 and Ramos cells (Homo sapiens, UniProt O60825) (O60825 whole entry): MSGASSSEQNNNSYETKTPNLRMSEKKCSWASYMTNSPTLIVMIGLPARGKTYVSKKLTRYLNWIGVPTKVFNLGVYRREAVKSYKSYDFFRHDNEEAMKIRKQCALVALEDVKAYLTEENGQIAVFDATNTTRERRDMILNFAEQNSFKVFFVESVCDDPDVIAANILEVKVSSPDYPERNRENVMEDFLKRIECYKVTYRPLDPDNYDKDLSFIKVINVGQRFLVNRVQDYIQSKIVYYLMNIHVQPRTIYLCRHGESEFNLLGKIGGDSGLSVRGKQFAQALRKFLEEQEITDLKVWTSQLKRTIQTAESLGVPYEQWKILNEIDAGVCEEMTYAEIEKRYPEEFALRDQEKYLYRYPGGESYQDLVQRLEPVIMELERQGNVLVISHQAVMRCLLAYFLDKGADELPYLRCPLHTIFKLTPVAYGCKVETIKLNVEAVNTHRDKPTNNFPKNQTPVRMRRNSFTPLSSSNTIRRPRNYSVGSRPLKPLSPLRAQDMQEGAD
Sequence of cysteines in MDA-MB-231 and Ramos cells (Homo sapiens, UniProt O14933) (O14933 whole entry): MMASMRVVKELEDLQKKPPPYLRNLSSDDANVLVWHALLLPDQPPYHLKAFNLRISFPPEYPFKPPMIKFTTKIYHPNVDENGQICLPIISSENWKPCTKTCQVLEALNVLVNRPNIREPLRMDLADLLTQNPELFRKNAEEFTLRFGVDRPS
Sequence of cysteines in MDA-MB-231 and Ramos cells (Homo sapiens, UniProt O14980) (O14980 whole entry): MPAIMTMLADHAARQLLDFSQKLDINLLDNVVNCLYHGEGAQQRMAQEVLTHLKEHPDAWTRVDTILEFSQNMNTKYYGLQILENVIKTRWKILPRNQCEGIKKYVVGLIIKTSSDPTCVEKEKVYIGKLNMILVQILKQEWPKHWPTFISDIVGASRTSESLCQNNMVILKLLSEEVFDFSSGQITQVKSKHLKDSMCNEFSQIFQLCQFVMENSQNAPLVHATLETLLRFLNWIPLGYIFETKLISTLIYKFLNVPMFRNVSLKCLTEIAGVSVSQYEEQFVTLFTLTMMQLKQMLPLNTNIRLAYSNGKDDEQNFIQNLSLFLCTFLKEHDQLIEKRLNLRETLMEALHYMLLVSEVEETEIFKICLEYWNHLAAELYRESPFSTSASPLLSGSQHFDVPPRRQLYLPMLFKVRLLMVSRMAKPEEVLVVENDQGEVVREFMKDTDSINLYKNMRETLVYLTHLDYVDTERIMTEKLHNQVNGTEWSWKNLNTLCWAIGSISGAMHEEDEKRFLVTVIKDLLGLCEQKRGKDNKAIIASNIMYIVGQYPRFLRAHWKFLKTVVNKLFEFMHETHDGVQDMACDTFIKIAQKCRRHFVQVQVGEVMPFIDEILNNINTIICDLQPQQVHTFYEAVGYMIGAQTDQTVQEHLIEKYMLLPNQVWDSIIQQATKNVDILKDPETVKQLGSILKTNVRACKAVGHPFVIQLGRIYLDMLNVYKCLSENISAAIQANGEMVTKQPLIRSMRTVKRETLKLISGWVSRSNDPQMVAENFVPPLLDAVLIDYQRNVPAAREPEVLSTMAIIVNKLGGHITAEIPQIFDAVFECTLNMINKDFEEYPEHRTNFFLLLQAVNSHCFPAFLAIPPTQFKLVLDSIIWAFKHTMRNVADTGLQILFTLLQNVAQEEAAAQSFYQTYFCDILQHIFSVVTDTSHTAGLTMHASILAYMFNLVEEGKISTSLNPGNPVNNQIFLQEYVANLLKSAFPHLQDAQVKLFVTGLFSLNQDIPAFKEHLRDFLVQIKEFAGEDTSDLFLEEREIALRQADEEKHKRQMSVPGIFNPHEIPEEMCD

CC(C)CCOCCNC(=O)CCl [compound 27]
isoTOP-ABPP ratio P04818_C199 ([1]; 200 μM, insitu, 231): 0.5
isoTOP-ABPP ratio Q15398_C129 [2]: 0.5

COc1cc2c(cc1OC)CN(C(=O)CCl)CC2 [compound 8]
isoTOP-ABPP reactivity Q8N1F7_0522 NUP93 [3]: 20.0
isoTOP-ABPP reactivity P53384_C235 NUBP1 ([4]; 200 μM, insitu, 231): 0.6
isoTOP-ABPP reactivity P09110_C381 ACAA1 [5]: 0.8

COc1ccc(C2CC(c3cccs3)=NN2C(=O)CCl)cc1 (stereo not drawn) [compound 4]
isoTOP-ABPP reactivity P04818_C199 TYMS ([1]; 100 μM in situ 231): 20.0
isoTOP-ABPP reactivity P53384_C235 NUBP1 ([4]; 100 μM in situ 231): 0.6
isoTOP-ABPP reactivity O14980_0528 XPO1 ([6]; 100 μM in situ 231): 1.9
isoTOP-ABPP reactivity Q9BRF8_C54 CPPED1 ([7]; 100 μM in situ 231): 20.0
isoTOP-ABPP reactivity O14933_C98 UBE2L6 ([8]; 100 μM in situ 231): 3.0

O=C(CCl)Nc1cccc2ncccc12 [compound 51]
isoTOP-ABPP ratio O60825_C158 [9]; 231: 0.9
isoTOP-ABPP ratio P04818_C199 ([1]; 200 μM, insitu, 231): 20.0
isoTOP-ABPP ratio O14980_C528 [6]; 231: 1.1
isoTOP-ABPP ratio Q15398_C129 [2]: 7.4

COc1ccccc1OCCNC(=O)CCl [compound 28]
isoTOP-ABPP ratio P09110_C381 [5]: 0.8

O=C(CCl)N1CCN(S(=O)(=O)c2ccccc2F)CC1 [compound 10]
isoTOP-ABPP ratio O60825_C158 [9]; 231: 0.7
isoTOP-ABPP ratio O60825_C158 ([9]; ramos): 1.2
isoTOP-ABPP ratio, cysteine P04818_C199 ([1]; 200 μM, insitu, 231): 1.5
isoTOP-ABPP ratio, cysteine O15446_C86 [10]: 4.7
isoTOP-ABPP ratio O14980_C528 [6]; 231: 1.3
isoTOP-ABPP ratio O14980_C528 ([6]; ramos): 0.7
isoTOP-ABPP ratio Q9BRF8_C54 [7]: 3.8
isoTOP-ABPP ratio, cysteine O14933_C98 [8]; 231: 20.0
isoTOP-ABPP ratio, cysteine O14933_C98 ([8]; ramos): 3.2

CC1CCc2ccccc2N1C(=O)CCl (stereo not drawn) [compound 45]
isoTOP-ABPP ratio O60825_C158 [9]; 231: 1.3
isoTOP-ABPP ratio P04818_C199 ([1]; 200 μM, insitu, 231): 20.0
isoTOP-ABPP ratio Q8N1F7_C522 [3]: 20.0
isoTOP-ABPP ratio O15446_C86 [10]: 4.6
isoTOP-ABPP ratio Q9BRF8_C54 [7]: 20.0
isoTOP-ABPP ratio P09110_C381 [5]: 1.2
isoTOP-ABPP ratio O14933_C98 [8]; 231: 20.0

Cc1ccc(C=C(C#N)C(=O)NCCN2CCOCC2)cc1 [compound 41]
isoTOP-ABPP ratio O60825_C158 [9]; 231: 0.7
isoTOP-ABPP ratio P04818_C199 ([1]; 200 μM, insitu, 231): 0.7
isoTOP-ABPP ratio Q8N1F7_C522 [3]: 0.8
isoTOP-ABPP ratio P53384_C235 ([4]; 200 μM, insitu, 231): 0.2
isoTOP-ABPP ratio O14980_C528 [6]; 231: 0.9
isoTOP-ABPP ratio Q9BRF8_C54 [7]: 0.7
isoTOP-ABPP ratio P09110_C381 [5]: 0.9
isoTOP-ABPP ratio O14933_C98 [8]; 231: 0.5

— patent publication US10670605B2, “Cysteine reactive probes and uses thereof” (The Scripps Research Institute, priority 2015, dated 2020)
